In patent US20130143927A1, “COMPOUNDS THAT MODULATE INTRACELLULAR CALCIUM” (CalciMedica, Inc., priority 2011, published 2013):

Key:
RBL-2H3 cells = test: Fluorescence-based assay of store-operated calcium entry in RBL-2H3 cells; type: cell-based; conditions: Rattus norvegicus, store-operated calcium entry after thapsigargin, Fluo-4, 50% inhibition of Upslope
Protocol: B. Fluorescence-based Assay of Store-Operated Calcium Entry in RBL-2H3 Cells. Cells:
RBL-2H3 cells are obtained from ATCC and maintained in complete medium with 10% FBS at 37° C./6% CO2.
The day prior to performing the assay, RBL-2H3 cells are plated in 50 μL of complete medium in a 384 well plate. Cells are grown at 37° C./6% CO2 overnight and grow to 50-60% confluence by the next day. On the assay day, 1.5 μM Fluo-4-AM dye (Invitrogen) in complete medium is added and incubated for 1 hour at RT. Cells are washed twice in Ca^2+-free HBSS buffer and 35 μL Ca^2+-free HBSS buffer is added to each well. 10 μL of a test compound prepared in a Ca^2+-free HBSS solution at 4.5× of the desired concentration is added to a well and incubated for 5 minutes at RT. 10 μL of thapsigargin prepared in a Ca^2+-free HBSS solution at 5.5× of the desired concentration (5.5 uM) is added to each well and incubated for an additional 25 minutes. The initial baseline fluorescence signal is measured with a FLIPR^384 (Molecular Devices) plate reader. 5 μL of 12× calcium in HBSS (12 mM) is added and changes in cellular fluorescence are measured with the FLIPR^384 plate reader. In each well, the change in the fluorescent signal as a function of time due to calcium entry into the cell is determined by calculating the difference between the fluorescent signal measured 7 seconds after calcium addition and the initial baseline fluorescence signal at time zero (t=0). This parameter is designated Upslope. The IC50 value is calculated as the concentration at which 50% of the Upslope is inhibited.

[1] = target: T1, recombinant human STIM1 and Orai1 (HEK-293 cells) (Homo sapiens, UniProt Q96D31); test: Fluorescence-based assay of store-operated calcium entry in Orai1/STIM1 stable cells; type: cell-based; conditions: fluo-4, 50% inhibition of Peak-Basal signal
T1 construct: expressed in transfected cells; host or cells: HEK-293 cells stably expressing both proteins
Protocol: A. Fluorescence-based Assay of Store-Operated Calcium Entry in Orai1/STIM1 Stable Cells.
Cells stably expressing recombinant human STIM1 and Orai1 are generated by transfecting a human Orai1 expression plasmid (pcDNA3.1-Orai1-cmyc) into HEK-293 cells stably overexpressing human STIM1 (Roos et al. 2005 JCB 169(3): 435-445). Colonies of cells stably expressing both STIM1 and Orai1 proteins are selected and then subcloned by limiting dilution. Cells were cultured at 37° C./6% CO2 in complete medium with 10% FBS and appropriate selection markers.
The day prior to performing the assay Orai1/STIM1 stable cells are plated in 50 μL of complete medium at 90-95% confluence in a 384 well plate. Cells are grown at 37° C./6% CO2 overnight. On the day of the assay, 1.5 μM fluo-4-AM (Invitrogen) in complete medium is added to the cells, which are then incubated for 1 hour at RT. Cells are washed once in Ca^2+-free HBSS (Hank's buffered saline solution) and 35 μl of Ca^2+-free HBSS is added to each well. Test compounds are added to wells in a 10 μL Ca^2+-free HBSS solution, prepared at 4.5× the desired final concentration, and incubated for 30 minutes at RT. The initial baseline fluorescence signal is then measured with a FLIPR^384 (Molecular Devices) plate reader. Calcium entry is initiated by adding 5 μl of 10×CaCl2 (10 mM) in HBSS, and changes in cellular fluorescence are measured with the FLIPR^384 plate reader. In each well, the magnitude of the fluorescence signal as a result of calcium entry into the cell is determined by calculating the difference between the peak fluorescence signal measured after calcium addition and the initial baseline fluorescence signal (designated Peak-Basal). IC50 values are typically calculated as the concentration that inhibited 50% of the Peak-Basal signal.

T1 sequence (Q96D31 whole entry): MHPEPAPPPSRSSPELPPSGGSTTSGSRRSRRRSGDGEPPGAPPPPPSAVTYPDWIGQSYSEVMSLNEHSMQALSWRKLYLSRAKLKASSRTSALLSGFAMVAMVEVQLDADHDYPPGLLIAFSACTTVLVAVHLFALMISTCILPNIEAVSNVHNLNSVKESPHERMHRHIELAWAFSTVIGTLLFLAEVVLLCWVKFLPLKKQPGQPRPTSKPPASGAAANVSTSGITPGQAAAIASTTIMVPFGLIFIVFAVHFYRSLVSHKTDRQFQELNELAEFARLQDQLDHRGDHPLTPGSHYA

SMILES | IC50 (RBL-2H3 cells) [nM] | IC50 [1] [nM]
Cn1nc(C(F)(F)F)cc1-c1cnc(NCc2c(F)cccc2F)s1 [Compound 2, N-(2,6-difluorobenzyl)-5-(1-methyl-3-(trifluoromethyl)-1H-pyrazol-5-yl)thiazol-2-amine] | < 600 | 600 to 1200
Cn1nc(C(F)(F)F)cc1-c1cnc(NCc2ccccc2F)s1 [Compound 4, N-(2-fluorobenzyl)-5-(1-methyl-3-(trifluoromethyl)-1H-pyrazol-5-yl)thiazol-2-amine] | < 600 | < 600
Cn1nc(C(F)(F)F)cc1-c1cnc(OCc2c(F)cccc2F)s1 [Compound 32, 2-[(2,6-difluorophenyl)methoxy]-5-[1-methyl-3-(trifluoromethyl)pyrazol-5-yl]-1,3-thiazole] | < 600 | < 600
Cc1cc2c(cc1-c1cnc(NCc3c(F)cncc3F)s1)OC(F)(F)O2 [Compound 14, 5-(2,2-difluoro-6-methylbenzo[d][1,3]dioxol-5-yl)-N-((3,5-difluoropyridin-4-yl)methyl)thiazol-2-amine] | < 600 | 600 to 1200
Cn1nc(C(F)(F)F)cc1-c1cnc(NCc2c(F)cncc2F)s1 [Compound 11, N-((3,5-difluoropyridin-4-yl)methyl)-5-(1-methyl-3-(trifluoromethyl)-1H-pyrazol-5-yl)thiazol-2-amine] | 600 to 1200 | > 1200
Cn1nc(C(F)(F)F)cc1-c1ccc(NCc2c(F)cccc2F)s1 [Compound 35, N-(2,6-difluorobenzyl)-5-(1-methyl-3-(trifluoromethyl)-1H-pyrazol-5-yl)thiophen-2-amine] | < 600 | 600 to 1200
Cc1cc2c(cc1-c1cnc(OCc3c(F)cccc3F)s1)OC(F)(F)O2 [Compound 31] | < 600 | < 600
Cc1cc2c(cc1-c1ccc(NCc3c(F)cccc3F)s1)OC(F)(F)O2 [Compound 36, 5-(2,2-difluoro-6-methylbenzo[d][1,3]dioxol-5-yl)-N-(2,6-difluorobenzyl)thiophen-2-amine] | > 1200 | 600 to 1200
Cn1nc(C(F)(F)F)cc1-c1ccc(NCc2ccccc2F)s1 [Compound 34, N-(2-fluorobenzyl)-5-(1-methyl-3-(trifluoromethyl)-1H-pyrazol-5-yl)thiophen-2-amine] | 600 to 1200 | > 1200
